According to BindingDB's records for doi:10.1080/14756360701654894 (National Tsing Hua University, 2008):

What was measured:
Polyphenol oxidase 2 = target: T1, Polyphenol oxidase 2 (Agaricus bisporus, UniProt O42713); assay: Enzyme Assay; details: pH 6.8; 25 °C
T1 sequence (O42713 whole entry): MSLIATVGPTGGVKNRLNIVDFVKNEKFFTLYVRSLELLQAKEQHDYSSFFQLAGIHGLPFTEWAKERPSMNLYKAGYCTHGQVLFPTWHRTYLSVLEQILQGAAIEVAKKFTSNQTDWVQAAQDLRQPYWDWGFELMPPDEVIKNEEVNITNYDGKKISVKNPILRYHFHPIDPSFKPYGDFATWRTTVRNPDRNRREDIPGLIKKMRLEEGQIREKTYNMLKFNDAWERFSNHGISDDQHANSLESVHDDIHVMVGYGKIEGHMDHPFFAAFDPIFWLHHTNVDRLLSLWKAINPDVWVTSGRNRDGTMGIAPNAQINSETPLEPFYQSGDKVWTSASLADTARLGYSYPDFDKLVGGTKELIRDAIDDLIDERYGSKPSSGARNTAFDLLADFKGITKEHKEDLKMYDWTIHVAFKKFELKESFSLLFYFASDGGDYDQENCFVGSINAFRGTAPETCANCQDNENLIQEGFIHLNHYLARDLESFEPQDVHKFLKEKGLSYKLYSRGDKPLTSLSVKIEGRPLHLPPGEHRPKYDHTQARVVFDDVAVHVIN

Tyrosinase = target: T2, Tyrosinase (Mus musculus, UniProt P11344); assay: Enzyme Assay; details: pH 6.8; 25 °C
T2 sequence (P11344 whole entry): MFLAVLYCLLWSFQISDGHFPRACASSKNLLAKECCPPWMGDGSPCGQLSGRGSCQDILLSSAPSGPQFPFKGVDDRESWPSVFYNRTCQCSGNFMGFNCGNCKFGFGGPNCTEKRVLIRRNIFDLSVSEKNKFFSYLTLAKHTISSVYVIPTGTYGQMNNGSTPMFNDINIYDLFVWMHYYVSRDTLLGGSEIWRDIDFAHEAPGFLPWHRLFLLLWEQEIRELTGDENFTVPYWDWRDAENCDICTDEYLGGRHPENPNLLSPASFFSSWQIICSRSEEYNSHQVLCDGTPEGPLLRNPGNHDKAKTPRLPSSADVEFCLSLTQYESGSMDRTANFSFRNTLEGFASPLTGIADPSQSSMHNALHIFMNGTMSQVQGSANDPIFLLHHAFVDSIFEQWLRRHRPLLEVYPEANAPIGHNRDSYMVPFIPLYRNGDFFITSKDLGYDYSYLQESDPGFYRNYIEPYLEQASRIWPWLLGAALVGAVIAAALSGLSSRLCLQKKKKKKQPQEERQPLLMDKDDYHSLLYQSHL

Row | Compound | IC50 (Polyphenol oxidase 2) | IC50 (Tyrosinase)
1 | OCC1OC(Oc2ccc(O)cc2)C(O)C(O)C1O (centres undefined) [2-Hydroxymethyl-6-(4-hydroxy-phenoxy)-tetrahydro-pyran-3,4,5-triol] | 296 µM | –
2 | OCc1ccc(O)cc1 [4-Hydroxybenzyl alcohol] | 350 µM | 650 µM

Continued, values first:

Row | IC50 (Polyphenol oxidase 2) | IC50 (Tyrosinase) | Compound
3 | 87.6 µM | 188 µM | Oc1ccc(O)cc1
4 | 894 µM | 2390 µM | COc1ccc(/C=C2/SC(=S)N(CCC(=O)O)C2=O)cc1 [3-[(5E)-5-[(4-methoxyphenyl)methylidene]-4-oxo-2-sulfanylidene-3-thiazolidinyl]propanoic acid]
5 | 402 µM | 952 µM | COc1cc(-c2nc(S(=O)(=O)c3ccc(C)cc3)c(N3CCOCC3)o2)cc(OC)c1OC [4-[4-(4-methylphenyl)sulfonyl-2-(3,4,5-trimethoxyphenyl)-5-oxazolyl]morpholine]
